Like-named read-outs stand apart in the source and are kept apart here.
What was measured:
[1] = molecular target: T1, HCV NS5B RdRp genotype 1b (Hepatitis C virus genotype 1b, UniProt Q9WMX2); test: Modified HCV NS5B RdRp enzyme assay (with preincubation); type: biochemical; details: modified method (with preincubation)
T1 construct: The protein was expressed with an 18 amino acid C-terminal truncation to enhance the solubility; made in house; host or cells: E. coli BL21 (DE3), pET21a
Procedure, shortened: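 C-terminally truncated (Δ18) genotype 1b NS5B from E. coli was preincubated (14 nM) with compound, then reaction started with polyA template (0.2 nM), ³H-UTP (0.29 μM) and dT12 primer (20 nM) precaptured on SPA beads. Reaction ran 4 h at 30 °C in pH 7.5 Hepes buffer with 2% DMSO. IC50 came from seven concentrations.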

HCV replicon = HCV replicon FRET assay; type: cell-based; details: Hepatitis C virus
Procedure, shortened: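 Replicon cells (± Renilla luciferase reporter) incubated with titrated compound at 37 °C; NS3 protease activity read by FRET peptide cleavage (20 uM EDANS/DABCYL substrate, 340/490 nm kinetic) or luciferase.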

T1 sequence (Q9WMX2 2420-2992): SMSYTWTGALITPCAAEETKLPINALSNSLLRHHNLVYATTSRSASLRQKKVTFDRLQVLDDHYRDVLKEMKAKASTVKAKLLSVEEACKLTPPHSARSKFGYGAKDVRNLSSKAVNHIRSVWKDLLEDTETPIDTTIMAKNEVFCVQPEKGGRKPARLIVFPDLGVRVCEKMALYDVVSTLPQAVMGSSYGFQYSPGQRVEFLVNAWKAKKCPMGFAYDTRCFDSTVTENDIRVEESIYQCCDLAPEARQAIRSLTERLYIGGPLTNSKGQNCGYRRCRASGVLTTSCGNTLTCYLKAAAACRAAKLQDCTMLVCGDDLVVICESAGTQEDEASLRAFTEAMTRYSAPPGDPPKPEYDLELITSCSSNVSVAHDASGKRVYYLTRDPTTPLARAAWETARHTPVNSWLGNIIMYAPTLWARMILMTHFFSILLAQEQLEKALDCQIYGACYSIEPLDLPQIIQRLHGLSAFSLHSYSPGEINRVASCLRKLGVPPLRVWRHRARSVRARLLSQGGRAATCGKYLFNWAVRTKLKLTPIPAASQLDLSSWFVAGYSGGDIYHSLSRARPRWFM

SMILES | IC50 [1] | EC50 (HCV replicon; FRET assay, read-out: EC50) | EC50 (HCV replicon)
CN(C)S(=O)(=O)NC(=O)c1ccc2c(C3CCCCC3)c3n(c2c1)CC(=O)Nc1ccccc1-3 | 0.02 to 1 µM | 0.01 to 1 µM | 
COC(=O)c1ccc2c(C3CCCCC3)c3n(c2c1)CC(C(=O)N1CCOCC1)=Cc1ccncc1-3 | > 1 µM | 1 to 10 µM | 
O=C(O)c1ccc2c(C3CCCCC3)c3n(c2c1)CC(C(=O)N1CCOCC1)=Cc1cccnc1-3 | 0.02 to 1 µM | 0.01 to 1 µM | 
O=C(NS(=O)(=O)C1CC1)c1ccc2c(C3CCCCC3)c3n(c2c1)CC(C(=O)N1CCOCC1)=Cc1ccccc1-3 | 0.02 to 1 µM | 0.01 to 1 µM | 
CS(=O)(=O)NC(=O)c1ccc2c(C3CCCCC3)c3n(c2c1)CC(C(=O)N1CCOCC1)=Cc1ccccc1-3 | 0.02 to 1 µM | 0.01 to 1 µM | 
O=C(O)c1ccc2c(C3CCCCC3)c3n(c2c1)CC(C(=O)N1CCOCC1)Cc1cccnc1-3 (centres unmarked) | 0.02 to 1 µM | 1 to 10 µM | 
CN(C)S(=O)(=O)NC(=O)c1ccc2c(C3CCCCC3)c3n(c2c1)CC(C(=O)N1CCOCC1)=Cc1cccnc1-3 | 0.02 to 1 µM | 0.01 to 1 µM | 
COC(=O)c1ccc2c(C3CCCCC3)c3n(c2c1)CC(N1CCOCC1)Cc1ccccc1-3 (centres unmarked) | > 1 µM | 0.01 to 1 µM | 
O=C(O)c1ccc2c(C3CCCCC3)c3n(c2c1)CC(N1CCOCC1)Cc1ccccc1-3 (centres unmarked) | 0.02 to 1 µM | 0.01 to 1 µM | 
COC(=O)c1ccc2c(C3CCCCC3)c3n(c2c1)CC(C(=O)O)=Cc1cc(OC)ccc1-3 | 0.02 to 1 µM | 1 to 10 µM | 
COC(=O)c1ccc2c(C3CCCCC3)c3n(c2c1)CC(C(=O)N1CCOCC1)=Cc1cc(OC)ccc1-3 | 0.02 to 1 µM | 0.01 to 1 µM | 
COc1ccc2c(c1)C=C(C(=O)N1CCOCC1)Cn1c-2c(C2CCCCC2)c2ccc(C(=O)O)cc21 | 0.02 to 1 µM | 0.01 to 1 µM | 
CN(C)S(=O)(=O)NC(=O)c1ccc2c(C3CCCCC3)c3n(c2c1)CC(C(=O)N1CCOCC1)Cc1cccnc1-3 (centres unmarked) | 0.02 to 1 µM | 0.01 to 1 µM | 
O=C(O)c1ccc2c(C3CCCCC3)c3n(c2c1)CC(C(=O)N1CCOCC1)=Cc1ccncc1-3 | 0.02 to 1 µM | 1 to 10 µM | 
O=C(O)c1ccc2c(C3CCCCC3)c3n(c2c1)C=C(C(=O)N1CCOCC1)Cc1ccncc1-3 | > 1 µM | > 10 µM | 
COc1ccc2c(c1)C=C(C(=O)N1CCOCC1)Cn1c-2c(C2CCCCC2)c2ccc(C(=O)NS(=O)(=O)N(C)C)cc21 | 0.02 to 1 µM |  | 0.01 to 1 µM
CC(C)S(=O)(=O)NC(=O)c1ccc2c(C3CCCCC3)c3n(c2c1)CC(C(=O)N1CCOCC1)=Cc1ccccc1-3 | 0.02 to 1 µM | 0.01 to 1 µM | 
CCS(=O)(=O)NC(=O)c1ccc2c(C3CCCCC3)c3n(c2c1)CC(C(=O)N1CCOCC1)=Cc1ccccc1-3 | 0.02 to 1 µM | 0.01 to 1 µM | 
O=C(NS(=O)(=O)N1CCCC1)c1ccc2c(C3CCCCC3)c3n(c2c1)CC(C(=O)N1CCOCC1)=Cc1ccccc1-3 | 0.02 to 1 µM | 0.01 to 1 µM | 
CC(C)(C)S(=O)(=O)NC(=O)c1ccc2c(C3CCCCC3)c3n(c2c1)CC(C(=O)N1CCOCC1)=Cc1ccccc1-3 | 0.02 to 1 µM | 0.01 to 1 µM | 
CCS(=O)(=O)NC(=O)c1ccc2c(C3CCCCC3)c3n(c2c1)CC(C(=O)N1CCOCC1)Cc1ccccc1-3 (centres unmarked) | 0.02 to 1 µM | 0.01 to 1 µM | 
CC(C)S(=O)(=O)NC(=O)c1ccc2c(C3CCCCC3)c3n(c2c1)CC(C(=O)N1CCOCC1)Cc1ccccc1-3 (centres unmarked) | 0.02 to 1 µM | 0.01 to 1 µM | 
COc1ccc2c(c1)CC(C(=O)N1CCOCC1)Cn1c-2c(C2CCCCC2)c2ccc(C(=O)O)cc21 (centres unmarked) | 0.02 to 1 µM | 0.01 to 1 µM | 
O=C(NS(=O)(=O)c1ccccc1)c1ccc2c(C3CCCCC3)c3n(c2c1)CC(C(=O)N1CCOCC1)Cc1ccccc1-3 (centres unmarked) | 0.02 to 1 µM | 0.01 to 1 µM | 
COC(=O)C1=Cc2ccccc2-c2c(C3CCCCC3)c3ccc(C(=O)NS(=O)(=O)N(C)C)cc3n2C1 | 0.02 to 1 µM | 0.01 to 1 µM | 

SMILES | IC50 [1] | EC50 (HCV replicon; FRET assay, read-out: EC50) | EC50 (HCV replicon)
COC(=O)c1ccc2c(C3CCCCC3)c3n(c2c1)CC(C(=O)N1CCCOCC1)=Cc1ccccc1-3 | > 1 µM | 1 to 10 µM | 
O=C(O)c1ccc2c(C3CCCCC3)c3n(c2c1)CC(C(=O)N1CCCOCC1)=Cc1ccccc1-3 | 0.02 to 1 µM | 0.01 to 1 µM | 
CN(C)S(=O)(=O)NC(=O)c1ccc2c(C3CCCCC3)c3n(c2c1)CC(C(=O)O)=Cc1ccccc1-3 | 0.02 to 1 µM | > 10 µM | 
O=C(O)/C=C/c1ccc(NC(=O)C2(NC(=O)c3ccc4c(C5CCCCC5)c5n(c4c3)CCNc3ccccc3-5)CCCC2)cc1 | 0.02 to 1 µM | 0.01 to 1 µM | 
O=C(O)c1ccc2c(C3CCCCC3)c3n(c2c1)CNc1ccccc1-3 | 0.02 to 1 µM | 0.01 to 1 µM | 
COC(=O)c1ccc2c(C3CCCCC3)c3n(c2c1)CNc1ccccc1-3 | > 1 µM | 0.01 to 1 µM | 
COC(=O)c1ccc2c(C3CCCCC3)c3n(c2c1)CCNc1ccccc1-3 | > 1 µM | 0.01 to 1 µM | 
COC(=O)c1ccc2c(C3CCCCC3)c3n(c2c1)CC(C(=O)N1CCOCC1)Cc1ccncc1-3 (centres unmarked) | > 1 µM | 0.01 to 1 µM | 
O=C(O)c1ccc2c(C3CCCCC3)c3n(c2c1)CC(C(=O)N1CCOCC1)Cc1ccncc1-3 (centres unmarked) | 0.02 to 1 µM | 0.01 to 1 µM | 
CCN(C)S(=O)(=O)NC(=O)c1ccc2c(C3CCCCC3)c3n(c2c1)CC(C(=O)N1CCOCC1)=Cc1ccccc1-3 | 0.02 to 1 µM | 0.01 to 1 µM | 
CCN(CC)S(=O)(=O)NC(=O)c1ccc2c(C3CCCCC3)c3n(c2c1)CC(C(=O)N1CCOCC1)=Cc1ccccc1-3 | 0.02 to 1 µM | 0.01 to 1 µM | 
CC(C)NS(=O)(=O)NC(=O)c1ccc2c(C3CCCCC3)c3n(c2c1)CC(C(=O)N1CCOCC1)=Cc1ccccc1-3 | 0.02 to 1 µM | 0.01 to 1 µM | 
O=C(NS(=O)(=O)N1CCCC1)c1ccc2c(C3CCCCC3)c3n(c2c1)CC(C(=O)N1CCOCC1)Cc1ccccc1-3 (centres unmarked) | 0.02 to 1 µM | 0.01 to 1 µM | 
CN(C)S(=O)(=O)NC(=O)c1ccc2c(C3CCCCC3)c3n(c2c1)CC(C(=O)N1CCNCC1)=Cc1ccccc1-3 | 0.02 to 1 µM | 0.01 to 1 µM | 
CC(C)(C)OC(=O)N1CCn2c(c(C3CCCCC3)c3ccc(C(=O)O)cc32)-c2ccccc21 | 0.02 to 1 µM | 1 to 10 µM | 
CN(C)S(=O)(=O)NC(=O)c1ccc2c(C3CCCCC3)c3n(c2c1)CCN(C(=O)OC(C)(C)C)c1ccccc1-3 | 0.02 to 1 µM | 0.01 to 1 µM | 
CN(C)S(=O)(=O)NC(=O)c1ccc2c(C3CCCCC3)c3n(c2c1)CCNc1ccccc1-3 | 0.02 to 1 µM | 0.01 to 1 µM | 
COC(=O)c1ccc2c(C3CCCCC3)c3n(c2c1)CC(C(=O)O)=Cc1ccc(Cl)cc1-3 | > 1 µM | 1 to 10 µM | 
O=C(O)c1ccc2c(C3CCCCC3)c3n(c2c1)CC(C(=O)N1CCOCC1)=Cc1ccc(Cl)cc1-3 | 0.02 to 1 µM | 1 to 10 µM | 
CN(C)S(=O)(=O)NC(=O)c1ccc2c(C3CCCCC3)c3n(c2c1)CC(C(=O)N1CCOCC1)=Cc1ccc(Cl)cc1-3 | 0.02 to 1 µM | 1 to 10 µM | 
COC(=O)C1=C(C)c2ccccc2-c2c(C3CCCCC3)c3ccc(C(=O)OC)cc3n2C1 | > 1 µM | 0.01 to 1 µM | 
CN(C)S(=O)(=O)NC(=O)c1ccc2c(C3CCCCC3)c3n(c2c1)CC(C(=O)N1CCOCC1)=Cc1ccncc1-3 | 0.02 to 1 µM | 0.01 to 1 µM | 
COC(=O)c1ccc2c(C3CCCCC3)c3n(c2c1)CC(C(=O)O)=C(C)c1ccccc1-3 | > 1 µM | 1 to 10 µM | 
Cn1c(C(=O)O)cc2cc(NC(=O)C3(NC(=O)c4ccc5c(C6CCCCC6)c6n(c5c4)CCNc4ccccc4-6)CCCC3)ccc21 | 0.02 to 1 µM | 0.01 to 1 µM | 
